From ChEMBL document CHEMBL3603761 (Bioorg Med Chem, 2015)
Activity calls are given as the source filed them. The calls are words filed in the database; no cut-off is given here.

Columns and labels:
Autotaxin [1] = molecular target: T1, Autotaxin (Homo sapiens, UniProt Q13822); assay: Inhibition of human ATX phosphodiesterase expressed in Sf9 cells assessed as hydrolysis of FS-3 at 10 uM measured after 5 to 25 mins by fluorescence assay
Autotaxin [2] = molecular target: T1, Autotaxin; assay: Irreversible inhibition of human ATX phosphodiesterase activity expressed in Sf9 cells assessed as hydrolysis of FS-3 preincubated for 2 mins before substrate addition measured 1000 fold dilution by fluorescence assay
MeWo [3] = assay: Antitumor activity against human MeWo cells xenografted in athymic nude mouse assessed as reduction of ATX level in serum at 30 mg/kg, ip administered every other day of 21 days post tumor cell injection; type: functional, organism-based
MeWo [4] = assay: Antitumor activity against human MeWo cells xenografted in athymic nude mouse at 30 mg/kg, ip administered every other day of 21 days post tumor cell injection; type: functional, organism-based
MeWo [5] = assay: Cytotoxicity against human MeWo cells assessed as reduction of cell viability after 48 hrs by CellTiter-Blue assay; type: functional
OVCAR-3 [6] = assay: Cytotoxicity against human OVCAR3 cells after 48 hrs by CellTiter-Blue assay; type: functional, cell-based; conditions: OVCAR-3, 48 h
MeWo [7] = assay: Antitumor activity against human MeWo cells xenografted in athymic nude mouse assessed as reduction of ATX level in serum at 50 mg/kg, ip administered every other day of 21 days post tumor cell injection; type: functional, organism-based
Mus musculus [8] = assay: Toxicity in human MeWo cells xenografted athymic nude mouse assessed as mortality at 50 mg/kg, ip administered every other day of 21 days post tumor cell injection up to 48 days followed by administered 40 mg/kg, ip; type: organism-based; conditions: in vivo
Autotaxin [9] = molecular target: T1, Autotaxin; assay: Inhibition of human ATX phosphodiesterase expressed in Sf9 cells assessed as hydrolysis of FS-3 measured after 5 to 25 mins by fluorescence assay
MDA-MB-231 [10] = assay: Inhibition of cell migration in human MDA-MB-231 cells assessed as gap closure distance at 5 uM after 24 hrs by wound healing assay in presence of 1 uM of LPA; type: functional, cell-based
MeWo [11] = assay: Inhibition of cell migration in human MeWo cells assessed as gap closure distance at 5 uM after 24 hrs by wound healing assay in presence of 1 uM of LPA; type: functional, cell-based
SK-OV-3 [12] = assay: Inhibition of cell migration in human SKOV3 cells assessed as gap closure distance at 5 uM after 24 hrs by wound healing assay; type: functional, cell-based
HT-29 = assay: Cytotoxicity against human HT-29 cells after 48 hrs by CellTiter-Blue assay; type: functional, cell-based; conditions: HT-29, 48 h
MeWo [13] = assay: Antitumor activity against human MeWo cells xenografted in athymic nude mouse assessed as necrotic endothelial cells at 50 mg/kg, ip administered every other day of 21 days post tumor cell injection up to 48 days followed by administered 40 mg/kg, ip using hematoxylin and eosin staining; type: functional, organism-based
MeWo [14] = assay: Inhibition of cell migration in human MeWo cells assessed as gap closure distance at 5 uM after 24 hrs by wound healing assay; type: functional, cell-based
[15] = Cytotoxicity against human SB2 cells after 48 hrs by CellTiter-Blue assay; type: functional, cell-based; conditions: SB2, 48 h
OVCAR-3 [16] = assay: Inhibition of cell migration in human OVCAR3 cells assessed as gap closure distance at 5 uM after 24 hrs by wound healing assay in presence of 1 uM of LPA; type: functional, cell-based
MeWo [17] = assay: Antitumor activity against human MeWo cells xenografted in athymic nude mouse assessed as reduction of KC/CXCL-1 level in serum at 50 mg/kg, ip administered every other day of 21 days post tumor cell injection; type: functional, organism-based
MeWo [18] = assay: Antitumor activity against human MeWo cells xenografted in athymic nude mouse assessed as necrosis in tumor at 50 mg/kg, ip administered every other day of 21 days post tumor cell injection up to 48 days followed by administered 40 mg/kg, ip using hematoxylin and eosin staining; type: functional, organism-based
Mus musculus [19] = assay: Toxicity in human MeWo cells xenografted athymic nude mouse assessed as mortality at 50 mg/kg, ip administered every other day of 21 days post tumor cell injection measured on day 45; type: organism-based; conditions: in vivo, 504 h
PC-3 = assay: Cytotoxicity against human PC3 cells after 48 hrs by CellTiter-Blue assay; type: functional, cell-based; conditions: PC-3, 48 h
MDA-MB-231 [20] = assay: Inhibition of cell migration in human MDA-MB-231 cells assessed as gap closure distance at 5 uM after 24 hrs by wound healing assay; type: functional; conditions: MDA-MB-231, 24 h
SK-OV-3 [21] = assay: Cytotoxicity against human SKOV3 cells after 48 hrs by CellTiter-Blue assay; type: functional, cell-based; conditions: SK-OV-3, 48 h
MeWo [22] = assay: Cytotoxicity against human MeWo cells after 48 hrs by CellTiter-Blue assay; type: functional, cell-based
Mus musculus [23] = assay: Toxicity in human MeWo cells xenografted athymic nude mouse assessed as severe dehydration at 50 mg/kg, ip administered every other day of 21 days post tumor cell injection measured on day 45; type: organism-based; conditions: in vivo, 504 h
SK-OV-3 [24] = assay: Inhibition of cell migration in human SKOV3 cells assessed as gap closure distance at 5 uM after 24 hrs by wound healing assay in presence of 1 uM of LPA; type: functional, cell-based
Autotaxin [25] = molecular target: T1, Autotaxin; assay: Inhibition of human ATX phosphodiesterase expressed in Sf9 cells assessed as hydrolysis of FS-3 preincubated for 2 mins before substrate addition measured after 5 to 25 mins by fluorescence assay
OVCAR-3 [26] = assay: Inhibition of cell migration in human OVCAR3 cells assessed as gap closure distance at 5 uM after 24 hrs by wound healing assay; type: functional; conditions: OVCAR-3, 24 h
MDA-MB-231 [27] = assay: Cytotoxicity against human MDA-MB-231 cells after 48 hrs by CellTiter-Blue assay; type: functional, cell-based; conditions: MDA-MB-231, 48 h

C=C(CCCCCCCCCCCCCCCC)S(=O)(=O)c1ccccc1
inhibition (Autotaxin [1]): inactive
inhibition (Autotaxin [2]): inactive

O=C1S/C(=C\c2ccc(OCc3cccc(B(O)O)c3)cc2)C(=O)N1Cc1ccc(F)cc1
Activity (MeWo [3]): inactive
Activity (MeWo [4]): inactive
Activity (MeWo [5]): <25%

C=C(CCCCCCCCCCCCCCCC)S(=O)(=O)CCC[N+](C)(C)C.[Cl-]
IC50 (OVCAR-3 [6]): 4440 nM
Activity (MeWo [7]): Active
Activity (Mus musculus [8]): Non-toxic
Ki (Autotaxin [9]): 3500 nM
inhibition (MDA-MB-231 [10]): Active
inhibition (MeWo [11]): Active
inhibition (SK-OV-3 [12]): Active
IC50 (HT-29): 2110 nM
Activity (MeWo [13]): Active
inhibition (MeWo [14]): Active
IC50 [15]: 4890 nM
inhibition (OVCAR-3 [16]): Active
Activity (MeWo [17]): Active
Activity (MeWo [18]): Active
Activity (Mus musculus [19]): Toxic
inhibition (Autotaxin [2]): Active
IC50 (PC-3): 1930 nM
inhibition at 5 µM (MDA-MB-231 [20]): 75%
IC50 (SK-OV-3 [21]): 6740 nM
IC50 (MeWo [22]): 4080 nM
Activity (MeWo [5]): <25%
Activity (Mus musculus [23]): Toxic
inhibition (SK-OV-3 [24]): Active
inhibition (Autotaxin [25]): inactive
inhibition at 5 µM (OVCAR-3 [26]): 75%
IC50 (MDA-MB-231 [27]): 390 nM

C=C(CCCCCCCCCCCC)S(=O)(=O)CCC[N+](C)(C)C
Ki (Autotaxin [9]): 1790 nM

C=C(CCCCCCCC/C=C\CCCCCCCC)S(=O)(=O)CCC[N+](C)(C)C
Ki (Autotaxin [9]): 2430 nM

C=C(CCCCCC)S(=O)(=O)CCC[N+](C)(C)C
inhibition (Autotaxin [1]): inactive

O=C(CCN1CCN(C(=O)OCc2cc(Cl)cc(Cl)c2)CC1)c1ccc2[nH]c(=O)oc2c1
Activity (MeWo [3]): inactive
Activity (MeWo [4]): inactive
